Experimental data as given in ChEMBL document CHEMBL4400517, “Marine natural products as potential anti-tubercular agents” (Eur J Med Chem, 2019).
In brackets after ≈: the same amount, converted by molar mass.

These compounds were tested on Mycobacterium tuberculosis (assay: Antimycobacterial activity against Mycobacterium tuberculosis). Details: not given.
Format: functional

Row | Structure (SMILES) | MIC [µM]
1 | CSC1=CC2=C(C(=O)c3ccc([C@H]4C[C@@H](O)[C@H](O)[C@@H](C)O4)c(O)c3C2=O)[C@@]2(O)C(=O)C[C@](C)(O)C[C@@]12O | 5.88 (≈ 3.13 µg/mL)
2 | CSC1=CC2=C(C(=O)c3ccc([C@H]4C[C@@H](O)[C@H](O)[C@@H](C)O4)c(O)c3C2=O)[C@@]2(O)C(=O)C=C(C)C[C@@]12O | 24.3 (≈ 12.5 µg/mL)
3 | COC1=C(Br)C(O)[C@@]2(C=C1Br)CC(C(=O)NCCCCNC(=O)C1=NO[C@]3(C=C(Br)C(OC)=C(Br)C3O)C1)=NO2 (stereo partly specified) | 7.99 (≈ 6.54 µg/mL)
4 | CSC1=CC2=C(C(=O)c3ccc([C@H]4C[C@@H](O)[C@H](O[C@H]5CC[C@H](O[C@H]6C[C@@H](O)[C@H](O)[C@@H](C)O6)[C@H](C)O5)[C@@H](C)O4)c(O)c3C2=O)[C@@]2(O[C@H]3CC[C@H](O)[C@H](C)O3)C(=O)C[C@](C)(O)C[C@@]12O | 14 (≈ 12.5 µg/mL)
5 | Cc1cc(O)c2c3c(ccc2c1)C(=O)c1c(ccc([C@H]2C[C@@H](O)[C@H](O)[C@@H](C)O2)c1O)C3=O | 14.4 (≈ 6.26 µg/mL)
6 | COC(=O)c1c(C)cc2c(c1O)[C@@]1(O)C(=O)c3cc4c(c(O)c3C(=O)[C@@]1(OC)CC2)C(=O)C=C(N[C@H]1O[C@@H](C)[C@H](O)[C@@H](O)[C@H]1OC)C4=O | 1.5 (≈ 1 µg/mL)

The compounds below were run on Mycobacterium tuberculosis (assay: Antimycobacterial activity against Mycobacterium tuberculosis H37Rv assessed as inhibition of mycobacterial growth at 12.5 ug/ml relative to control). Details: not given.
Format: functional

Row | Structure (SMILES) | inhibition at 12.5 µg/mL [%]
7 | CC1(C)CCC[C@]2(C)[C@H]3[C@H](C#N)c4cc(O)c(O)cc4O[C@@]3(C)CC[C@@H]12 | 96
8 | CC(C)=C[C@@H]1C[C@H](C)[C@H]2CC[C@H](C)c3c2c1c(C)c1ncoc31 [PSEUDOPTEROXAZOLE] | 97
9 | CC1(C)CCC[C@]2(C)[C@H]3C(C#N)=C4C=C(O)C(=O)C=C4O[C@@]3(C)CC[C@@H]12 | 90
10 | CC(C)=CCC[C@H](C)[C@H]1CC[C@@H](C)c2c1ccc1ncoc21 | 66
11 | CC1(C)CCC[C@]2(C)[C@H]3C=C4C=C(O)C(=O)C=C4O[C@@]3(C)CC[C@@H]12 [PUUPEHENONE] | 99

Each compound was assayed on Mycobacterium tuberculosis (assay: Antimycobacterial activity against Mycobacterium tuberculosis H37Ra). Details: not given.
Format: functional

Row | Structure (SMILES) | MIC [µM]
12 | C1=C\CCCC[C@@H]2CN3CCCC/C=C\CCCC[C@H]4C[C@H](CN(CCCCCC/1)C4)[C@H]2CC3 (relative stereo) | 2.14 (≈ 1 µg/mL)
13 | C1=C\CCCCN2C[C@H]3CCCC/C=C\CCCCN4CC[C@@H]([C@H](CCCCCC/1)C4)[C@H](C3)C2 (relative stereo) | 5.34 (≈ 2.5 µg/mL)

These compounds were tested against T1, Phosphotyrosine protein phosphatase (Mycobacterium tuberculosis) (UniProt A0A045ISB3) (assay: Inhibition of Mycobacterium tuberculosis Protein Tyrosine Phosphatase B at 100 uM relative to control). Details: not given.
T1 sequence (whole entry): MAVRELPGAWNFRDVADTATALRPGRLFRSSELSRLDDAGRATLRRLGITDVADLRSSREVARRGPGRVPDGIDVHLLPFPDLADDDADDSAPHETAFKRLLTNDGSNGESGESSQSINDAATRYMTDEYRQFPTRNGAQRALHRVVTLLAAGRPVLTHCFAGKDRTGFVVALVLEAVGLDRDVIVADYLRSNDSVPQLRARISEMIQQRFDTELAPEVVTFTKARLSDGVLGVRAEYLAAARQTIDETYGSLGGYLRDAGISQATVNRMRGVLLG

Row | Structure (SMILES) | inhibition [%]
14 | COC1=CC(=O)c2c(O)c3c(c(O)c2C1=O)C[C@](C)(O)[C@H](O)[C@H]3O | 37
15 | COc1cc(O)c2c(c1O)C(=O)c1cc(C)ccc1C2=O | 17.5 to 48.8
16 | CCCCCCSC1=C(SCCCCCC)C(=O)c2c(O)c3c(c(O)c2C1=O)C[C@](C)(O)[C@H](O)[C@H]3O | 56.2
17 | COC1=CC(=O)c2c(O)c3c(c(O)c2C1=O)C[C@]1(C)OC(=O)O[C@@H]1[C@H]3O | 17.5 to 48.8
18 | COC1=CC(=O)c2c(cc3c(c2O)C[C@@H](O)[C@@](C)(O)C3)C1=O | 17.5 to 48.8
19 | CNC1=CC(=O)c2c(O)c3c(c(O)c2C1=O)C[C@](C)(O)[C@H](O)C3 | 9.7
20 | COc1cc(O)c2c(c1O)C(=O)C1=C(C[C@@H](O)[C@@](C)(O)C1)C2=O | 17.5 to 48.8
21 | CNC1=CC(=O)c2c(O)c3c(c(O)c2C1=O)C[C@](C)(O)[C@H](O)[C@H]3O | 17.5 to 48.8
22 | CCCNC1=CC(=O)c2c(O)c3c(c(O)c2C1=O)C[C@](C)(O)[C@H](O)[C@H]3O | 17.5 to 48.8
23 | COC1=CC(=O)c2c(O)c3c(c(O)c2C1=O)C[C@]1(C)OCO[C@@H]1[C@H]3O | 17.5 to 48.8
24 | COC1=CC(=O)c2c(O)c3c(c(O)c2C1=O)C[C@]1(C)OC(C)(C)O[C@@H]1[C@H]3O | 17.5 to 48.8
25 | COC1=CC(=O)c2c(O)c3c(c(O)c2C1=O)C[C@]1(C)OC(C=C(C)C)O[C@@H]1[C@H]3O (stereo partly specified) | 17.5 to 48.8

These compounds were tested on Mycobacterium tuberculosis (assay: Antimycobacterial activity against Mycobacterium tuberculosis H37Rv). Details: not given.
Format: functional, organism-based

Row | Structure (SMILES) | IC50 [µM] | MIC [µM]
26 | COC(=O)/C1=C/c2c([nH]c3ccccc23)/C(C(=O)OC)=C\c2c1[nH]c1ccccc21 [CAULERPIN] | 0.24 | 
27 | COC(=O)N[C@H]1[C@@H](C)O[C@@H](O[C@H]2C/C=C(\C)[C@@H]3C=C[C@@H]4[C@@H](O[C@@H]5C[C@@H](O[C@@H]6C[C@@H](O)[C@@H](O[C@H]7C[C@@H](C)[C@H](OC)[C@H](O)C7)[C@H](C)O6)[C@@H](O)[C@H](C)O5)[C@@H](C)C[C@H](C)[C@H]4[C@]3(C)C(=O)C3=C(O)[C@@]4(C[C@@H](C)C(CO)=C[C@H]4/C=C/2C)OC3=O)C[C@]1(C)[N+](=O)[O-] |  | 13.5 (≈ 16 µg/mL)
28 | O[C@]12C=C(c3nccc4c3[nH]c3ccccc34)[C@@H]3CCN(CCCC/C=C\CC1)C[C@@]31C[C@@H]3/C=C\CCCCN3[C@H]12 [MANZAMINE A] |  | 1.64 (≈ 0.9 µg/mL)
29 | COC(=O)N[C@H]1[C@@H](C)O[C@@H](O[C@H]2C/C=C(\C)[C@@H]3C=C[C@@H]4[C@@H](O[C@@H]5C[C@@H](O[C@@H]6C[C@@H](O)[C@@H](O[C@H]7C[C@@H](C)[C@H](OC)[C@H](O)C7)[C@H](C)O6)[C@@H](O)[C@H](C)O5)[C@@H](C)C[C@H](C)[C@H]4[C@]3(C)C(=O)C3=C(O)[C@@]4(C[C@@H](C)C(COC(C)=O)=C[C@H]4/C=C/2C)OC3=O)C[C@]1(C)N |  | 26.7 (≈ 32 µg/mL)
30 | O=C1CCCN2[C@@H](CC1)C[C@]13CN4CCCC/C=C\CC[C@](O)(C=C(c5nccc6c5[nH]c5ccccc56)[C@@H]1CC4)[C@H]23 |  | 6.74 (≈ 3.81 µg/mL)
31 | CO[C@H]1/C=C/O[C@@]2(C)Oc3c(C)c(O)c4c(O)c(c(/C=N/N5CCN(C)CC5)c(O)c4c3C2=O)NC(=O)/C(C)=C\C=C\[C@H](C)[C@H](O)[C@@H](C)[C@@H](O)[C@@H](C)[C@H](OC(C)=O)[C@@H]1C [RIFAMPIN] | 0.55 | 
32 | O=C1CCCN2[C@@H](CC1)C[C@]13CN4CCCC/C=C\CC[C@](O)(C=C(c5nccc6c5[nH]c5ccc(O)cc56)[C@@H]1CC4)[C@H]23 |  | 52.1 (≈ 30.2 µg/mL)
33 | O=C1CCCN2[C@@H](CC1)C[C@]13CN4CCCC/C=C\CC[C@](O)(C=C(c5nccc6c5[nH]c5c(O)cccc56)[C@@H]1CC4)[C@H]23 |  | 0.69 (≈ 0.401 µg/mL)
34 | CC(=O)O[C@H]1C[C@H]2[C@]3(C)CC[C@H]4C(C)(C)CCC[C@]4(C)[C@H]3C[C@@H](O)[C@]2(C)[C@@H]2C1=CC[C@H]2OC(C)=O | 2.67 | 12.8 (≈ 6.23 µg/mL)
35 | C=C(CC[C@@H](C)[C@H]1CC[C@H]2[C@@H]3[C@@H](C=O)[C@]4(O)C[C@@H](O)CC[C@]4(C)[C@H]3CC[C@]12C)C(C)C |  | 26.1 (≈ 11.2 µg/mL)
36 | COC(=O)N[C@H]1[C@@H](C)O[C@@H](O[C@H]2C/C=C(\C)[C@@H]3C=C[C@@H]4[C@@H](O[C@@H]5C[C@@H](O[C@@H]6C[C@@H](O)[C@@H](O[C@H]7C[C@@H](C)[C@H](OC)[C@H](O)C7)[C@H](C)O6)[C@@H](O)[C@H](C)O5)[C@@H](C)C[C@H](C)[C@H]4[C@]3(C)C(=O)C3=C(O)[C@@]4(C[C@@H](C)C(CO)=C[C@H]4/C=C/2C)OC3=O)C[C@]1(C)N |  | 27.7 (≈ 32 µg/mL)
37 | CC(=O)O[C@H]1C[C@@]2(C)[C@@H](CC[C@H]3[C@@]4(C)C=CC(=O)[C@@H](C)C4[C@H](OC(C)=O)C(=O)[C@@]32C)/C1=C(\CCC=C(C)C)C(=O)O (stereo partly specified) |  | 0.89 (≈ 0.506 µg/mL)
38 | C=C(CC[C@@H](C)[C@H]1CC[C@H]2[C@@H]3C(C=O)=C4C[C@@H](O)CC[C@]4(C)[C@H]3CC[C@]12C)C(C)C [PARGUESTEROL A] |  | 18.9 (≈ 7.81 µg/mL)
39 | C=C(CC[C@@H](C)[C@H]1CC[C@H]2[C@@H]3CC=C4C[C@@H](O)CC[C@]4(C)[C@H]3CC[C@]12C)C(C)C |  | 302 (≈ 120 µg/mL)
40 | O=CC1=C[C@@]2(O)CC/C=C\CCCCN3CC[C@@H]1[C@]1(C[C@@H]4/C=C\CCCCN4[C@H]12)C3 [IRCINAL] |  | 73.7 (≈ 30.2 µg/mL)

Each compound was assayed on Mycolicibacterium phlei (assay: Antimycobacterial activity against Mycobacterium phlei assessed as diameter of inhibition zone at 20 ug/disc). Details: read-out: IZ.
Format: functional

Row | Structure (SMILES) | zone of inhibition at 20 µg/disc [mm]
41 | CC(C)=CCOc1cc(O)c2c3c(c(O)cc(C)c13)C(=O)OC2=O | 16
42 | Cc1cc(O)c2c3c(c(O)c4c(c13)O[C@@H](C)[C@]4(C)CO)C(=O)OC2=O | 20
43 | CC(C)=CCOc1cc(O)c2c3c(c(O)cc(C)c13)OC2=O | 22

Each compound was assayed on Mycolicibacterium smegmatis (assay: Antibiofilm activity against Mycobacterium smegmatis after 5 weeks). Details: not given.
Format: functional

Row | Structure (SMILES) | MIC [µM]
44 | CC(C)=C/C=C\[C@H](C)[C@H]1CC[C@]2(C)C[C@@H]3C(C)=CC(=O)[C@H]3/C(C=O)=C\C[C@@H]12 | 17 (≈ 6.23 µg/mL)
45 | CC(C)=C/C=C\[C@H](C)[C@H]1CC[C@]2(C)C[C@H]3[C@H](C(=O)C[C@@]3(C)O)/C(C=O)=C\C[C@@H]12 | 4.1 (≈ 1.58 µg/mL)
46 | CC(C)=C/C=C\[C@H](C)[C@H]1CC[C@]2(C)C[C@H]3[C@@H](C(=O)C[C@@]3(C)O)/C(C=O)=C\C[C@@H]12 | 65 (≈ 25 µg/mL)

Each compound was assayed on Mycolicibacterium vaccae (assay: Antimycobacterial activity against Mycobacterium vaccae assessed as diameter of inhibition zone at 50 ug/disc). Details: read-out: IZ.
Format: functional

Row | Structure (SMILES) | zone of inhibition at 50 µg/disc [mm]
47 | CC[C@H]1/C=C/[C@H](O)[C@H](C=C(C)C)OC(=O)[C@@]2(C)C=CC(=O)Nc3c2c(O)c2c(c(O)c(C)cc2c3O)C(=O)CC1 | 11
48 | CC[C@H]1/C=C/[C@@H]([C@@H](O)C=C(C)C)OC(=O)/C(C)=C\CC(=O)Nc2cc(O)cc3c2O[C@@]2(CC1)CC(=O)[C@@H](C)[C@@H]3O2 | 19
49 | CC[C@H]1/C=C/[C@@H]([C@@H](O)C=C(C)C)OC(=O)/C(C)=C\[C@@H]2C(=O)NC3=CC(=O)c4c(cc(C)c(O)c4C(=O)CC1)[C@@]32O | 12
50 | CC[C@H]1/C=C/[C@H](O)[C@H](C=C(C)C)OC(=O)/C(C)=C/CC(=O)Nc2cc(O)cc3c2O/C(=C\C(=O)CC1)C(C)=C3 | 12
